Measurements reported in patent publication US8669246B2, “Substituted amide compound” (Astellas Pharma Inc., priority 2009, dated 2014).

Experiments:
[1] = molecular target: T1, human LPA1 (Homo sapiens, UniProt Q92633); experiment: Antagonistic action on human LPA1: inhibition of LPA-stimulated increase in intracellular calcium ion concentration in human LPA1-CHO cells; type: cell-based; settings: LPA 100 nM, Fluo-4/FLIPR calcium signal
T1 construct: expressed in transfected cells
Experimental: Antagonistic Action of Compound of Formula (I) on Human LPA1
The antagonistic action on a human LPA 1 was evaluated with an index of an inhibitory action on the LPA-stimulated increase in intracellular calcium ion concentration, using human LPA 1-CHO cells [cells in which human LPA1 receptors are stably expressed in CHO (dhfr gene-deficient) cell lines].
Establishment of human LPA1-CHO cells was performed based on the basic genetic engineering techniques.
The established cells were maintained by passage in a nucleic acid-free α-MEM medium (Invitrogen) containing 10% FBS, 1% penicillin/streptomycin (Invitrogen), and 100 nM methotrexate, and before experiment, the medium was replaced with a medium that had been reduced to 1% of the […] concentration, then seeded in 96-well plates to 1.5×10e^5 cells/100 μL/well, and incubated overnight.
On the day of experiment, a 0.5 μM Fluo-4 solution [a solution prepared by adding 20 mM HEPES (Sigma), […] probenecid (Nacalai Tesque), 0.05% BSA, 0.5 μM Fluo-4 AM (Dojindo Laboratories), and 0.1% Pluronic […] (Molecular Probe Co.) to a Hanks Balanced Solt Solution (Invitrogen)] was added to the cells, and Fluo-4 was loaded on the cells by incubating for 2 hours at room temperature.
After loading Fluo-4, the Fluo-4 solution was replaced with a reaction solution [a solution obtained by adding 20 mM HEPES, […] probenecid, and 0.05% BSA to a Hanks Balanced Solt Solution], and then measurement was performed using a device for measuring an intracellular calcium concentration (FLIPR tetra, Molecular Devices Inc.).
A reaction solution in which the compound of the formula (I) (with a final concentration of 0.1 nM to 10 μM) had been dissolved was added to each of the wells, the signals were measured over time for 4 minutes, then a reaction solution in which LPA (final concentration 100 nM) had been dissolved was added thereto, and the signals were measured over time for 2 minutes. The difference between the maximum and minimum response during one minute from addition of LPA was calculated. The inhibitory activity was calculated, with a response when LPA only (not including the compound) was added was taken as 0% inhibition, and a response when a reaction solution not including both of the compound and LPA was added was taken as 100% inhibition. Then the 50% inhibitory concentration was calculated as an IC50 value (nM).
Human LPA1-CHO cells used in the present test were the cells with the same sequence as described in the pamphlet of International Publication WO 99/19513 were used. Further, Ex represents Example No. as denoted below.

[2] = test system: LPA-induced increase in urethral pressure; experiment: Inhibitory action on LPA-induced increase in urethral pressure in rats under anesthesia; type: in vivo, rat (male Wistar); settings: Rattus norvegicus, 5 min; 0.1 mg/kg intravenous, LPA (1-oleoyl) 3 mg/kg iv after 5 minutes, anesthetized rats, vs solvent; read-out: Inhibitory rate
Experimental: Inhibitory Action of Compound of Formula (I) on LPA-Induced Increase in Urethral Pressure in Rats Under Anesthesia (with Intravenous Administration at 0.1 mg/kg) Male Wistar rats (Charles River, 9- to 12-week old) were anesthetized with urethane (1.2 g/kg ip), and held in the supine position on an operating table kept at 37° C. The lower abdominal portion was midline-incised and the bladder was thus exposed. A small portion of the bladder apex was incised, a microchip pressure transducer (Millar) was inserted antegrade, and then placed in the urethra, and the urethral pressure was recorded continuously. In addition, a cannula for administration of a drug was placed into the femoral vein. After about 1 hour of stabilization, the compound of formula (I) (0.1 mg/kg) was administered intravenously. After 5 minutes, LPA (1-oleoyl) was administered intravenously at 3 mg/kg, and the changes in the urethral pressure were recorded. The inhibitory rates (%) of the compound of the formula (I) on the LPA-stimulated increase in the urethral pressure compared with those after administration of the solvent of the compound of the formula (I) were recorded.

T1 sequence (Q92633 whole entry): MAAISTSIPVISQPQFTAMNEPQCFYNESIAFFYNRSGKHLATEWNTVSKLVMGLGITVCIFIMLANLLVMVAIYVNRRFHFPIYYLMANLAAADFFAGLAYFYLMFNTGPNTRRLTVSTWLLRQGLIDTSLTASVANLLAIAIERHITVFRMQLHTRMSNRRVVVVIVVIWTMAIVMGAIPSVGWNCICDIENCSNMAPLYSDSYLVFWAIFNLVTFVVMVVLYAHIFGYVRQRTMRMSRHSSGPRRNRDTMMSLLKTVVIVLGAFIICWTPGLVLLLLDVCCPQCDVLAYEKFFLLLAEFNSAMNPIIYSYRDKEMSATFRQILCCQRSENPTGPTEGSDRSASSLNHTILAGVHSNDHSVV

Row | Compound | melting point | IC50 [1] | inhibition in vivo at 0.1 mg/kg [2]
1 | CCNS(=O)(=O)[N-]C(=O)c1csc(CN(CCCc2ccccc2)C(=O)c2cc(OC)c(C)c(OC)c2)n1.[K+] | 203 to 205 °C | – | –
2 | COc1cc(C(=O)N(CCCc2ccccc2)Cc2nc(C(=O)NS(=O)(=O)c3cccs3)cs2)cc(OC)c1C [Example 5, 2-{[(3,5-dimethoxy-4-methylbenzoyl)(3-phenylpropyl)amino]methyl}-N-(2-thienylsulfonyl)-1,3-thiazole-4-carboxamide] | – | 7.8 nM | –
3 | COc1cc(C(=O)N(CCCc2ccccc2)Cc2csc(C(=O)NS(N)(=O)=O)n2)cc(OC)c1C [Example 62] | 173 to 175 °C | 11 nM | –
4 | CNS(=O)(=O)NC(=O)c1nc(CN(CCCc2ccccc2)C(=O)c2cc(OC)c(C)c(OC)c2)cs1 [Example 63] | – | – | 28%
5 | COc1cc(C(=O)N(CCCc2ccccc2)Cc2nc(C(=O)NS(N)(=O)=O)cs2)cc(OC)c1C [Example 69] | 147 to 150 °C | 8.8 nM | 33%
6 | COc1cc(C(=O)N(CCCc2ccccc2)Cc2nc(C(=O)NS(=O)(=O)Nc3ccccn3)cs2)cc(OC)c1C [Example 79] | – | 16 nM | –
7 | COc1cc(C(=O)N(CCCc2ccccc2)Cc2nc(C(=O)NS(C)(=O)=O)cs2)cc(OC)c1C [Example 108] | 133 to 134 °C | 11 nM | –
8 | COc1cc(C(=O)N(CCCc2ccc(Cl)s2)Cc2nc(C(=O)NS(N)(=O)=O)cs2)cc(OC)c1C [Example 110] | 154 to 156 °C | 11 nM | –
9 | COc1cc(C(=O)N(CCCc2ccc(C)o2)Cc2nc(C(=O)NS(N)(=O)=O)cs2)cc(OC)c1C [Example 111] | – | 6.6 nM | 56%
10 | COc1cc(C(=O)N(CCCc2ccccc2F)Cc2nc(C(=O)NS(N)(=O)=O)cs2)cc(OC)c1C [Example 113] | 145 to 146 °C | 12 nM | –
11 | COc1cc(C(=O)N(CCCc2cc(F)ccc2F)Cc2nc(C(=O)NS(N)(=O)=O)cs2)cc(OC)c1C [Example 115] | – | 16 nM | –
12 | COc1cc(C(=O)N(CCCc2ccccc2)Cc2nc(C(=O)NS(N)(=O)=O)co2)cc(OC)c1C [Example 121] | 136 to 141 °C | 19 nM | –
13 | COc1cc(C(=O)N(CCCc2ccccc2)Cc2ccc(C(=O)NS(N)(=O)=O)o2)cc(OC)c1C [Example 123] | – | 7.5 nM | 39%
14 | C=Cc1c(OC)cc(C(=O)N(CCCc2ccccc2)Cc2nc(C(=O)NS(N)(=O)=O)cs2)cc1OC [Example 130] | – | – | 39%
15 | COc1cc(C(=O)N(CCCc2ccccc2)Cc2nc(C(=O)NS(N)(=O)=O)cs2)cc(OC)c1C1CC1 [Example 131] | 147 to 149 °C | 7.2 nM | 38%
16 | COc1cc(C(=O)N(CCCc2ccccc2)Cc2nc(C(=O)NS(N)(=O)=O)cs2)cc(OC)c1Br [Example 132] | – | – | 42%
17 | CNS(=O)(=O)NC(=O)c1csc(CN(CCCc2ccsc2)C(=O)c2cc(OC)c(C)c(OC)c2)n1 [Example 137] | – | 9.9 nM | 17%
18 | Cc1cc(C(=O)N(CCCc2ccccc2)Cc2nc(C(=O)NS(N)(=O)=O)c(Cl)s2)cc(C)c1O [Example 147] | – | 16 nM | –
19 | COCc1c(OC)cc(C(=O)N(CCCc2ccccc2)Cc2nc(C(=O)NS(=O)(=O)NOC)c(C)s2)cc1OC [Example 161] | 151 to 153 °C | – | –
20 | CNS(=O)(=O)NC(=O)c1nc(CN(CCCc2ccccc2)C(=O)c2cc(OC)c(Cl)c(OC)c2)sc1Cl [Example 162] | – | – | 21%
21 | COc1cc(C(=O)N(CCCc2ccccc2)Cc2nc(C(=O)NS(=O)(=O)CCO)cs2)cc(OC)c1C [Example 167] | – | 12 nM | 35%
22 | COc1cc(C(=O)N(CCCc2ccccc2)Cc2nc(C(=O)NS(=O)(=O)NC(C)=O)cs2)cc(OC)c1C [Example 168, N-(acetylsulfamoyl)-2-{[(3,5-dimethoxy-4-methylbenzoyl)(3-phenylpropyl)amino]methyl}-1,3-thiazole-4-carboxamide] | – | 17 nM | –
23 | COc1cc(C(=O)N(CCCc2ccccc2)Cc2nc(C(=O)NS(=O)(=O)CC(C)O)cs2)cc(OC)c1C (stereo not drawn) [Example 175] | – | 23 nM | –

Further lines, with some results ahead:

Row | melting point | IC50 [1] | Compound | inhibition in vivo at 0.1 mg/kg [2]
24 | 219 to 221 °C | – | COc1ccc(C2(C(=O)N(CCCc3cccc(F)c3)Cc3nc(C(=O)[N-]S(=O)(=O)N(C)C)c(C)s3)CC2)nc1.[K+] | –
25 | 178 to 179 °C | – | COc1ccc(C(O)C(=O)N(CCCc2ccccc2)Cc2nc(C(=O)NS(=O)(=O)N(C)C)c(C)s2)cn1 (stereo not drawn) [Example 28] | –
26 | 125 to 126 °C | – | COc1ccc(C2(C(=O)N(CCCc3ccccc3)Cc3nc(C(=O)NS(=O)(=O)N(C)C)c(C)s3)CC2)nc1 [Example 31] | –
27 | 128 to 131 °C | 22 nM | COc1cc(C(=O)N(CCCc2ccccc2)Cc2nc(C(=O)NS(C)(=O)=O)c(C)s2)cc(OC)c1C [Example 109] | –
28 | 128 to 131 °C | – | COc1cc(C(=O)N(CCCc2ccccc2F)Cc2nc(C(=O)NS(=O)(=O)N(C)C)cs2)cc(OC)c1C [Example 119] | –
29 | – | 33 nM | COc1ccc(C2(C(=O)N(CCCc3ccc(C)o3)Cc3nc(C(=O)NS(=O)(=O)N(C)C)c(C)s3)CC2)nc1 [Example 200] | 31%
30 | 114 to 115 °C | 40 nM | COc1ccc(C2(C(=O)N(CCCc3cccc(F)c3)Cc3nc(C(=O)NS(=O)(=O)N(C)C)c(C)s3)CC2)nc1 [Example 208] | 14%
31 | 112 to 113 °C | – | COc1ccc(C2(C(=O)N(CCCc3ccco3)Cc3nc(C(=O)NS(=O)(=O)N(C)C)c(C)s3)CC2)nc1 [Example 221] | –
32 | – | 22 nM | COc1ccc(C2(C(=O)N(CCCc3ccco3)Cc3nc(C(=O)NS(=O)(=O)N(C)C)c(C)s3)CC2)cc1 [Example 233] | 38%
33 | 118 to 120 °C | – | COc1ccc([C@@H](O)C(=O)N(CCCc2cccs2)Cc2nc(C(=O)NS(=O)(=O)N(C)C)c(C)s2)cc1 [Example 256] | –
34 | 123 to 125 °C | 65 nM | CCS(=O)(=O)NC(=O)c1nc(CN(CCCc2ccccc2)C(=O)[C@H](O)c2ccc(OC)cc2)sc1C [Example 266] | 15%
35 | 124 to 126 °C | 44 nM | CCS(=O)(=O)NC(=O)c1nc(CN(CCCc2cccs2)C(=O)[C@H](O)c2ccc(OC)cc2)sc1C [Example 272] | –
36 | 121 to 123 °C | 12 nM | COc1ccc([C@@H](O)C(=O)N(CCCc2ccccc2)Cc2nc(C(=O)NS(C)(=O)=O)c(C)s2)c(F)c1 [Example 277] | 42%
37 | 111 to 112 °C | – | CCS(=O)(=O)NC(=O)c1nc(CN(CCCc2ccccc2)C(=O)[C@H](O)c2ccc(OC)cc2F)sc1C [Example 278] | –
38 | 106 to 109 °C | 29 nM | CNS(=O)(=O)NC(=O)c1nc(CN(CCCc2cccs2)C(=O)[C@H](O)c2ccc(OC)cc2)sc1C [Example 283] | –
39 | 137 to 138 °C | 32 nM | COc1ccc([C@@H](O)C(=O)N(CCCc2ccccc2)Cc2nc(C(=O)NS(=O)(=O)C(C)C)c(C)s2)cc1 [Example 285] | –
40 | 110 to 112 °C | 33 nM | COc1ccc([C@@H](O)C(=O)N(CCCc2ccccc2)Cc2nc(C(=O)NS(=O)(=O)N(C)C)c(C)s2)cc1 [Example 290] | –
